Laboratory results: patent US9637471B2, “Hydroxyindalpine derivatives and their medical use” (Technische Universitat Munchen, priority 2013, dated 2017)

Columns and labels:
[1] = Retention of activity after storage (chemical stability); assay type: physicochemical; details: storage for 15 months as a solid at 4° C. or in solution frozen at −20° C.
[2] = test system: circular muscle strips from the guinea pig stomach; assay: Nerve mediated muscle responses to electrical field stimulation (EFS) in circular muscle strips, organ bath; assay type: cell-based; details: 10 μM in organ bath, EFS after 20 min
Method: The effects of 5-BOIP and homo-5-BOIP were tested in tissue preparations from the guinea pig stomach. After sacrificing the guinea pigs, the stomach was removed and immediately placed in ice-cold oxygenated Krebs solution. The stomach was opened along the greater curvature, thoroughly washed and pinned mucosal side up in Sylgard-coated Petri dishes. The mucosa was then carefully removed. Muscle strips (1.5 cm^2) were cut parallel to the circular muscle and mounted in 25 ml organ baths where they were maintained in oxygenated Krebs solution at 37° C. One edge of each muscle strip was attached to an isometric tension transducer (PowerLab, AD Instruments, Spechbach, Germany).
After mounting in the organ baths, tissues were equilibrated with a preload set at 15 mN for 45 min. Then, electrical field stimulations (EFS) were performed (constant current, 100 mA, pulse frequency 10 Hz, pulse width of 0.5 ms, 10 s). With the chosen parameters for the EFS, only the neuronal tissue in the preparation was stimulated without having a direct effect on the smooth muscle. […]
After reaching stable responses to the EFS, 5-BOIP and homo-5-BOIP were added to the organ baths at a final concentration of 10 μM. […] The responses to the EFS under control conditions and in the presence of 5-BOIP or homo-5-BOIP were analyzed later.

5-HT1P receptor = assay: Neuronal tissue assay: voltage-sensitive dye neuroimaging of human submucous plexus preparations; assay type: cell-based
Method: The effect of 5-BOIP was tested on freshly dissected submucous plexus preparations from surgical resections of human intestine. Samples were taken from macroscopically unaffected areas. Procedures were approved by the ethics committees of the Technical University Munich (1748/07 and 2595/09). Segments were dissected in ice cold Krebs solution to obtain mucosa/submucosa preparations containing the inner submucous plexus preparations for the imaging experiments.
In order to image the activity of enteric neurons using voltage sensitive dyes, the human submucous plexus preparations were placed into a recording chamber which was continuously perfused at 37° C. with oxygenated Krebs solution containing 117 mM NaCl, 4.7 mM KCl, 1.2 mM MgCl2, 1.2 mM NaH2PO4, 20 mM NaHCO3, 2.5 mM CaCl2, 11 mM glucose (pH 7.4). The neuroimaging set-up allowed to monitor membrane potential changes and changes in intracellular Ca^2+ [Ca]i transients in all cells of a given ganglion. To study membrane potential changes, individual ganglia were stained with the voltage-sensitive dye Di-8-ANEPPS (20 μM; Molecular Probes, Eugene, Oreg., USA) via intraganglionic application through a microejection pipette.
The imaging experiments were conducted on an inverted microscope (Zeiss Axio Observer.A1; Munich, Germany) equipped with the NeuroCCD system, consisting of a fast CCD camera (80×80 pixels) and the Neuroplex software for data acquisition and analysis (RedShirtImaging, Decatur, Ga., USA). To detect Di-8-ANEPPS a modified Cy3 filterset (545±15 nm excitation, 565 nm dichroic mirror, 580 nm barrier; Ahf Analysentechnik, Tübingen, Germany) was used. A green LED (LE T S2W, Osram, Munich, Germany) was used to excite Di-8-ANEPPS. Visualization of the ganglia and recording of signals were done with a ×100 or ×40 objective (NA=1.35, Olympus, Hamburg, Germany). The imaging set-up allowed to measure relative changes in the fluorescence (ΔF/F), which is for Di-8-ANEPPS linearly related to changes in the membrane potential. Frame rate to detect action potentials was 1 kHz. The overlay of signals and ganglion images allowed the analysis of the responses of individual cells.
5-BOIP was prepared at a stock solution of 100 mM. For controlled local application fine glass capillaries were filled with 50 μM 5-BOIP and positioned just above a ganglion. 5-BOIP was microejected for 400 ms via pressure pulse onto the ganglion. […] Since G protein coupled receptor activation takes several seconds, the recordings were started after a period of 2 s. In preliminary experiments it was verified that there was no immediate effect of 5-BOIP that would begin with the ejection application or directly thereafter.
The specificity of 5-BOIP effects was tested against the 5-HT1 antagonist 5-hydroxytryptophan dipeptide (5-HTP-DP). […]

mouse isolated colon = details: cited from earlier work

For `c1ccc(COc2ccc3[nH]cc(CCC4CCNCC4)c3c2)cc1` [5-BOIP, 5-(benzyloxy)-3-(2-(piperidin-4-yl)ethyl)-1H-indole], which activity after storage [1] is on record?
The activity after storage was “retains activity”.

And the “effect on the "on contraction" in response to the EFS” value [2]?
The value was “clearly reduced”.

What about the “action potential (spike) frequency” value (5-HT1P receptor; 5-BOIP alone, 50 μM in capillary microejected 400 ms onto ganglion, median (10%/90%)) of the same molecule?
The value was 1.6 (1.0/2.1) Hz.

And the “effect on human enteric nerve cells when applied to the ganglia” value (5-HT1P receptor; 5-BOIP applied to ganglia, human submucous plexus)?
Its value is “induces action potentials”.

What about the “action potential (spike) frequency in presence of 5-HT1P receptor antagonist 5-HTP-DP” value (5-HT1P receptor; 5-BOIP during 20 min bath application of 10 μM 5-HTP-DP, median (10%/90%)) of the same molecule?
Its value is 0 (0/0.5) Hz.

And the “action potential (spike) frequency after washing out the antagonist 5-HTP-DP” value (5-HT1P receptor; 5-BOIP freshly added after washout of 5-HTP-DP, median (10%/90%))?
The value was 1.0 (0.5/1.6) Hz.

With `Oc1ccc2[nH]cc(CCC3CCNCC3)c2c1` [5-OHIP, 5-hydroxyindalpine] as the molecule, how does the “effect on threshold pressure required to trigger the peristaltic reflex” value (mouse isolated colon) read?
The value was “reduce the threshold pressure”.

And the effect on peristalsis (mouse isolated colon; concentration dependent)?
The effect on peristalsis was “accelerate peristalsis”.

And the activity after storage [1]?
The activity after storage was “would lose its activity”.

Which “effect on the "on contraction" in response to the EFS” value [2] does the source give for `c1ccc(COc2ccc3[nH]cc(CCCC4CCNCC4)c3c2)cc1` [homo-5-BOIP, 5-(benzyloxy)-3-(3-[piperidin-4-yl]propyl)-1H-indole] here?
The value was “clearly reduced”.
